# Values of other authors in patent US5739081A, “Water dispersible granules of liquid pesticides” (ICI Australia Operations Proprietary Ltd., priority 1992, dated 1998).
# Conditions: in water
row,Compound,Solubility in water
1,C#CCON=C1CC2CCC1(C)C2(C)C (racemic) [Heptopargil],1000 µg/mL
2,CCCCOCN(C(=O)CCl)c1c(CC)cccc1CC [Butachlor],23 µg/mL
3,CCOP(=S)(NC(C)CC)Oc1cc(C)ccc1[N+](=O)[O-] (stereo not drawn) [Butamifos],5.1 µg/mL
4,CCSC(=O)N(CC(C)C)CC(C)C [Butylate],46 µg/mL
5,CCOP(=O)(OCC)OC(=CCl)c1ccc(Cl)cc1Cl [Chlorfenvinphos],145 µg/mL
6,CC1(C)C(/C=C(\Cl)C(F)(F)F)C1C(=O)OC(C#N)c1cccc(Oc2ccccc2)c1 (stereo not drawn) [Cyhalothrin],0.003 µg/mL
7,CCSCCSP(=O)(OC)OC [Demeton-S-methyl],3300 µg/mL
8,CCOP(=S)(OCC)SCCSCC [Disulfoton],25 µg/mL
9,COP(=S)(OC)Oc1ccc([N+](=O)[O-])c(C)c1 [Fenitrophion],14 µg/mL
10,CC(Cc1ccc(C(C)(C)C)cc1)CN1C[C@@H](C)O[C@@H](C)C1 (stereo partly drawn) [Fenpropimorph],10 µg/mL
11,CCCCOC(=O)[C@@H](C)Oc1ccc(Oc2ccc(C(F)(F)F)cn2)cc1 [Fluazifop-P-butyl],1 µg/mL
12,COP(=O)(OC)OC1=C(Cl)C2C=CCC12 (stereo not drawn) [Heptenophos],2200 µg/mL
13,CCOC(=O)/C=C(C)/C=C/CC(C)CCCC(C)C (stereo not drawn) [Hydroprene],0.54 µg/mL
14,CCOP(=S)(NC(C)C)Oc1ccccc1C(=O)OC(C)C (stereo not drawn) [Isofenphos],23.8 µg/mL
15,CC1(C)[C@H](C(=O)O[C@H](C#N)c2cccc(Oc3ccccc3)c2)[C@@H]1/C=C(\Cl)C(F)(F)F [Lambda-cyhalothrin],0.005 µg/mL
16,CCOP(=O)(N=C1SCC(C)S1)OCC (stereo not drawn) [Mephosfolan],57 µg/mL
17,CCc1cccc(C)c1N(C(=O)CCl)C(C)COC (stereo not drawn) [Metolachlor],530 µg/mL
18,CNC(=O)CSP(=O)(OC)OC [Omethoate],500 µg/mL
19,CCOP(=S)(OCC)Oc1ccc([N+](=O)[O-])cc1 [Parathion],24 µg/mL
20,CCCCN(CC)C(=O)SCCC [Pebulate],60 µg/mL
21,CCN(CC)c1nc(C)cc(OP(=S)(OC)OC)n1 [Pirimiphos-methyl],5 µg/mL
22,C#CCOS(=O)OC1CCCCC1Oc1ccc(C(C)(C)C)cc1 (stereo not drawn) [Propargite],1.9 µg/mL
23,CCNP(=S)(OC)O/C(C)=C/C(=O)OC(C)C (stereo not drawn) [Propetamphos],110 µg/mL
24,CCCC1COC(Cn2cncn2)(c2ccc(Cl)cc2Cl)O1 (stereo not drawn) [Propiconazole],110 µg/mL
25,CCCN(CCC)C(=O)SCc1ccccc1 [Prosulfocarb],13.2 µg/mL
26,CCCSP(=O)(OCC)Oc1cnn(-c2ccc(Cl)cc2)c1 (stereo not drawn) [Pyraclofos],33 µg/mL
27,CON=C(Cc1cccnc1)c1ccc(Cl)cc1Cl [Pyrifenox],115 µg/mL
28,CCN(CC)C(=O)SCc1ccc(Cl)cc1 [Thiobencarb],30 µg/mL
29,CCSCCSP(=S)(OC)OC [Thiometon],200 µg/mL
30,CCCCCCCCCCCCCN1CC(C)OC(C)C1 (stereo not drawn) [Tridemorph],11.7 µg/mL

# Same assay, conditions: in water; in words
row,Compound,Solubility in water
1,CC(C)N(Cc1ccccc1)C(=O)C(C)(C)C [Tebutam],Almost Insoluble
2,Dinocap,Sp. soluble

# Same assay, conditions: water
row,Compound,Solubility in water
1,CCOP(=S)(OCC)SCCl [Chlorimephos],60 µg/mL
2,CCOP(=S)(OCC)Oc1cc(C)nc(C(C)C)n1 [Diazinon],40 µg/mL
3,CC1(C)C(C=C(Cl)Cl)C1C(=O)OCc1cccc(Oc2ccccc2)c1 (stereo not drawn) [Permethrin],0.2 µg/mL
4,CCCSP(=O)(OCC)Oc1ccc(Br)cc1Cl (stereo not drawn) [Profenofos],20 µg/mL
